Test results from paper PMC8523698, “Preclinical characterization of an intravenous coronavirus 3CL protease inhibitor for the potential treatment of COVID19” (Nature Communications, 2021).
Where “and” joins values, the source holds several entries; their conditions need not be identical. Identical values can stand only once. Like-named read-outs stand apart in the source and are kept apart here.

What was measured:
[1] = Plasma protein binding by equilibrium dialysis; details: for fraction unbound at 6 h, 5 uM / fraction unbound at 6 h: plasma
OATP1B1 = biological target: T1, OATP1B1 (Homo sapiens, UniProt Q9Y6L6); experiment: Transporter inhibition using transfected HEK293 cells
T1 sequence (Q9Y6L6 1-691): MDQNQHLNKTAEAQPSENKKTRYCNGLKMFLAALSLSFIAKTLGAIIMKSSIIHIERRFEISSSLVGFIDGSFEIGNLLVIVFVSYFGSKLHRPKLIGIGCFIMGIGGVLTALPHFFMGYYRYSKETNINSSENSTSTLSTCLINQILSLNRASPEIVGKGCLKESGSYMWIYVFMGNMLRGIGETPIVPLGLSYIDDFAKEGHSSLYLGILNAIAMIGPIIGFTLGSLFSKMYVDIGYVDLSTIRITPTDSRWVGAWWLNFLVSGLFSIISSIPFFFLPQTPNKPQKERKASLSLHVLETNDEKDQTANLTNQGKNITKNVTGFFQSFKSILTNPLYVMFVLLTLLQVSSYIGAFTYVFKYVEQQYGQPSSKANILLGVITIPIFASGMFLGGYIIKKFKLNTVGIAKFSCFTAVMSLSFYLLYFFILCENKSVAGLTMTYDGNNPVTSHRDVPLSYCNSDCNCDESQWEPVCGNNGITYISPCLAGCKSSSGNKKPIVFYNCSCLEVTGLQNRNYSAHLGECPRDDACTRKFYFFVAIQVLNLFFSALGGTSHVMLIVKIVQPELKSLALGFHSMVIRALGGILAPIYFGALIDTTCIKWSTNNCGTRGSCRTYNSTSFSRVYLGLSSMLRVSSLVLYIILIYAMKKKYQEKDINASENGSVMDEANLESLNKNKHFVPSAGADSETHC

[2] = Human blood hemocompatibility (hemolysis, flocculation)
CYP2C9 = CYP2C9 (Homo sapiens, UniProt P11712); experiment: Reversible CYP inhibition in human liver microsomes
Sequence of CYP2C9 (P11712 whole entry): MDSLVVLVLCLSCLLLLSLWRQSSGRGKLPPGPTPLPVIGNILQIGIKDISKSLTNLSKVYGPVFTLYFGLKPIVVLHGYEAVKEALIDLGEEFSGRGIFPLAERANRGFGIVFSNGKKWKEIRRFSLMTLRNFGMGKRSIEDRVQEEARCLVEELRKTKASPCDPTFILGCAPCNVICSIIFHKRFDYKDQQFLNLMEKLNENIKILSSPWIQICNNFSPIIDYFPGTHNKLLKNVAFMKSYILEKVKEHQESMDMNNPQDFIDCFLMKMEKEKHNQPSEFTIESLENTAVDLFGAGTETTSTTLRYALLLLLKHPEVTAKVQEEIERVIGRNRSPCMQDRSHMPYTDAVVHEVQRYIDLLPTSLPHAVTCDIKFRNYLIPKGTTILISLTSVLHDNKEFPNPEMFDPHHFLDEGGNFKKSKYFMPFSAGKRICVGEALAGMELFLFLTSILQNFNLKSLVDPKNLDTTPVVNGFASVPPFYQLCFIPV

BCRP = BCRP (Homo sapiens, UniProt Q9UNQ0); experiment: Transporter inhibition using membrane vesicles; details: IC50, Rosuvastatin (0.2 µM)
Sequence of BCRP (Q9UNQ0 whole entry): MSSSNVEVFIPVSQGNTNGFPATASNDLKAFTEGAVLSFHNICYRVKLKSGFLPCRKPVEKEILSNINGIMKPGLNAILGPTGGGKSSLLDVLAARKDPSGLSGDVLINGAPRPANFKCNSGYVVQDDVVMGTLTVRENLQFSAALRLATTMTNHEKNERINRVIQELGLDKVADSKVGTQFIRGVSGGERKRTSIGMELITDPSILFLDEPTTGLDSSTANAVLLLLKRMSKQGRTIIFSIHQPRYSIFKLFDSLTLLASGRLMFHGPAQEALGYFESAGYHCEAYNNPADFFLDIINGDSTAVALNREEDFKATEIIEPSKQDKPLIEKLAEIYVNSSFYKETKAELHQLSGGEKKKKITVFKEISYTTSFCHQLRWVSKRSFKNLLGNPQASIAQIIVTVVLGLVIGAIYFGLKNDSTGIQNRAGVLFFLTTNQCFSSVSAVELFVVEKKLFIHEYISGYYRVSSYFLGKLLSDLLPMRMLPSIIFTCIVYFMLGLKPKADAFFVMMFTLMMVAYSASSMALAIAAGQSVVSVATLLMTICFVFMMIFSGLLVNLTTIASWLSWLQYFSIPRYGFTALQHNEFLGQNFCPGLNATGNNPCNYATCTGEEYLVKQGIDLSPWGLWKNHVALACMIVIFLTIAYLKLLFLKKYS

MATE2K = biological target: T2, MATE2K (Homo sapiens, UniProt Q86VL8); experiment: Transporter inhibition using transfected HEK293 cells; format: in vitro ADME; details: IC50, [14C]Metformin (20 µM)
T2 construct: expressed in transfected cells; host or cells: HEK293
T2 sequence (Q86VL8 1-566 isoform Q86VL8-3): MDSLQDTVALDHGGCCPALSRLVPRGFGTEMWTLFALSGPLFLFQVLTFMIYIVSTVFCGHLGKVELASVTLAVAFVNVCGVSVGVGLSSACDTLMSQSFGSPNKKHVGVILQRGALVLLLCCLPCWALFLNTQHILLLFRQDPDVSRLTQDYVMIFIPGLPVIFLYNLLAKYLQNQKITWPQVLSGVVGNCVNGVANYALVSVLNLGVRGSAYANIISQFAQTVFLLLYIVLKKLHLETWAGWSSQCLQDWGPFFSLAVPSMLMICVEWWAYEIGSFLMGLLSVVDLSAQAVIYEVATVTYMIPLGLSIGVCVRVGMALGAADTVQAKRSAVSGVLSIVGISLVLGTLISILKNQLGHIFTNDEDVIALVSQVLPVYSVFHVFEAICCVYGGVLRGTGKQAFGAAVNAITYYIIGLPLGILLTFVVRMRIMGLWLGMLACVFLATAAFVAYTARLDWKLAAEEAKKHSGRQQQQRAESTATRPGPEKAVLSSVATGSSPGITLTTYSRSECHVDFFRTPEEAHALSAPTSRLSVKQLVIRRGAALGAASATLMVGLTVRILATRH
Method: For the inhibition studies, HEK293 cells were washed three times with warm transport buffer (Hanks’ balanced salt solution with 20 mM 4-(2-Hydroxyethyl) piperazine-1-ethanesulfonic acid, pH 7.4) followed by incubation with test compounds containing probe substrates: 10 or 20 µM [^14C]-metformin (OCT1, OCT2, MATE1, MATE2K), 0.5 µM [^3H] para-aminohippuric acid (OAT1), 0.1 µM [^3H] estrone-3-sulfate (OAT3) or 0.5 µM rosuvastatin (OATP1B1/1B3). Uptake was terminated by washing cells at least three times with ice-cold transport buffer and then lysing with 0.2 mL of scintillation fluid or 0.225 mL of methanol containing internal standard. For radiolabeled compounds, radioactivity in each sample was quantified by measurement on MicroBeta (Perkin Elmer). For rosuvastatin, cell extracts were dried down under nitrogen and reconstituted in 50:50 (v:v) methanol:water prior to injection onto a LC-MS/MS system. The total cellular protein content was determined by using a BCA Protein Assay Kit (Pierce Biotechnology) following the manufacturer’s protocol. Uptake ratio was then derived as a ratio of accumulation in transfected cells to accumulation in wild-type cells. The half-maximal inhibitory concentration (IC50) for each transporter was calculated in GraphPad Prism.

CYP3A4/5 = experiment: Time-dependent inhibition of CYP enzymes in human liver microsomes
[3] = test system: SARS-CoV-2 Belgium/GHB-03021/2020 strain; experiment: microbe, parasite or virus in culture; format: cell-based; details: Severe acute respiratory syndrome coronavirus 2
hERG channel = hERG channel (Homo sapiens, UniProt Q12809); experiment: hERG potassium channel current assay; details: 300 µM vs projected Cmax at projected human efficacious dose
Sequence of hERG channel (Q12809 whole entry): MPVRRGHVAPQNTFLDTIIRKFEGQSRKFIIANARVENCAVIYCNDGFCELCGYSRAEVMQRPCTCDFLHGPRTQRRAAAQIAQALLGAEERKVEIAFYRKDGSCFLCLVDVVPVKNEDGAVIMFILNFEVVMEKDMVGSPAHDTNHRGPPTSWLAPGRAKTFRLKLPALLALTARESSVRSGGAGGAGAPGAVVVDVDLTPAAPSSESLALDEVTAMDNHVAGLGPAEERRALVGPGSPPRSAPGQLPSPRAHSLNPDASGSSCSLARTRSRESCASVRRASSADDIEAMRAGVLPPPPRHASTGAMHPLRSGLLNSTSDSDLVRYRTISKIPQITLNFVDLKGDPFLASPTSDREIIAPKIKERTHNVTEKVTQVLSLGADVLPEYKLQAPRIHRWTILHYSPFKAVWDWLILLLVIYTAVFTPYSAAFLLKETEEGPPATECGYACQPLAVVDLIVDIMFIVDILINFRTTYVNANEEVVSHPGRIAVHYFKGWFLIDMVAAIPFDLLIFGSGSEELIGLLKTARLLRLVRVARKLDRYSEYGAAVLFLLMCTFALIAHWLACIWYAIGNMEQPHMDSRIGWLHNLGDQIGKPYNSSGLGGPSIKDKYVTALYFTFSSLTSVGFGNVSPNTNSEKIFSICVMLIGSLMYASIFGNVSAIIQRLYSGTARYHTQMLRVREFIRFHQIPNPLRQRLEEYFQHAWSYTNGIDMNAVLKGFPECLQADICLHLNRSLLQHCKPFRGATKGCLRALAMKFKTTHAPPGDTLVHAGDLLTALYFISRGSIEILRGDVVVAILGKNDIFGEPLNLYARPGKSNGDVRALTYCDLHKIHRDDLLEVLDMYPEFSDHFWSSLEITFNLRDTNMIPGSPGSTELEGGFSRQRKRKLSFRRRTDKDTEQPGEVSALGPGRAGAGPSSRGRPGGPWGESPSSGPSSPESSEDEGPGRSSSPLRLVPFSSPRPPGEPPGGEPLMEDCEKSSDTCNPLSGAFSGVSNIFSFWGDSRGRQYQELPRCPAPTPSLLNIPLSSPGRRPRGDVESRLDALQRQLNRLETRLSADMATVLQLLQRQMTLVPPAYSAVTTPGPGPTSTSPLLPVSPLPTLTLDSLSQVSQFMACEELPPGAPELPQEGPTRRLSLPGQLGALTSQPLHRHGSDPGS

[4] = In vitro micronucleus formation; format: cell-based
[5] = Secondary/off-target pharmacology panel (Eurofins Cerep); details: assessed at 100 µM
[6] = Plasma protein binding by equilibrium dialysis; details: for fraction unbound at 6 h, 5 uM / fraction unbound at 6 h: human, plasma

SMILES: COc1cccc2[nH]c(C(=O)N[C@@H](CC(C)C)C(=O)N[C@@H](C[C@@H]3CCNC3=O)C(=O)CO)cc12 [PF-00835231]
- Individual fraction unbound ([1]; Monkey Cynomologous plasma, 5.0 uM, replicates Day 1-3): 0.429 and 0.445 and 0.467 and 0.489 and 0.396 and 0.428 and 0.46 and 0.501 and 0.390
- fraction unbound at 6 h, 5 uM ([1]; cynomolgus monkey, pH 7.4, Individual fraction unbound, Monkey Cynomologous plasma, 5.0 uM, replicates Day 1-3): 0.44
- fraction unbound at 6 h, 5 uM ([1]; monkey, pH 7.4, Fraction unbound, Geomean, Monkey plasma, 5.0 uM, n 12): 0.441
- fraction unbound at 6 h ([1]; monkey, pH 7.4, Plasma fu, Vdss input): 0.441
- fraction unbound at 6 h ([1]; monkey, pH 7.4, Unbound fraction fu (%CV), monkey plasma): 0.441
- fraction unbound at 6 h, 5 uM ([1]; monkey, pH 7.4, fraction unbound Geomean, monkey plasma, 5.0 uM, n=12): 0.441
- IC50 (OATP1B1): 30.1 µM
- IC50 (OATP1B1; human, HEK293 cells stably transfected with OATP1B1, pH 7.4, probe rosuvastatin (0.5 µM)): > 20 µM
- hemolysis or flocculation/turbidity parameters [2]: no effect on hemolysis or flocculation/turbidity parameters
- Percent of Control Activity (CYP2C9; CYP 2C9, 0.1 µM, 30-Minute Preincubation, 0.1 µM): 101.5% and 104.7%
- Percent of Control Activity (CYP2C9; CYP 2C9, 0.1 µM, Zero-Minute Preincubation, 0.1 µM): 113.8% and 92.8%
- Percent of Control Activity (CYP2C9; CYP 2C9, 0.214 µM, 30-Minute Preincubation, 0.214 µM): 103.1% and 106.7%
- Percent of Control Activity (CYP2C9; CYP 2C9, 0.214 µM, Zero-Minute Preincubation, 0.214 µM): 100.5% and 101.3%
- Percent of Control Activity (CYP2C9; CYP 2C9, 0.979 µM, 30-Minute Preincubation, 0.979 µM): 104.6% and 107.1%
- Percent of Control Activity (CYP2C9; CYP 2C9, 0.979 µM, Zero-Minute Preincubation, 0.979 µM): 107.0%
- Percent of Control Activity (CYP2C9; CYP 2C9, 2.09 µM, 30-Minute Preincubation, 2.09 µM): 102.9% and 114.0%
- Percent of Control Activity (CYP2C9; CYP 2C9, 2.09 µM, Zero-Minute Preincubation, 2.09 µM): 97.5%
- Percent of Control Activity (CYP2C9; CYP 2C9, 4.48 µM, 30-Minute Preincubation, 4.48 µM): 102.5% and 104.2%
- Percent of Control Activity (CYP2C9; CYP 2C9, 4.48 µM, Zero-Minute Preincubation, 4.48 µM): 95.3% and 94.9%
- Percent of Control Activity (CYP2C9; CYP 2C9, 20.5 µM, 30-Minute Preincubation, 20.5 µM): 101.2% and 96.3%
- Percent of Control Activity (CYP2C9; CYP 2C9, 20.5 µM, Zero-Minute Preincubation, 20.5 µM): 93.2%
- Percent of Control Activity (CYP2C9; CYP 2C9, 43.8 µM, 30-Minute Preincubation, 43.8 µM): 91.9% and 89.1%
- Percent of Control Activity (CYP2C9; CYP 2C9, 43.8 µM, Zero-Minute Preincubation, 43.8 µM): 85.3% and 88.3%
- Percent of Control Activity (CYP2C9; CYP 2C9, 93.5 µM, 30-Minute Preincubation, 93.5 µM): 76.4% and 76.0%
- Percent of Control Activity (CYP2C9; CYP 2C9, 93.5 µM, Zero-Minute Preincubation, 93.5 µM): 76.7% and 76.3%
- Percent of Control Activity (CYP2C9; CYP 2C9, 200 µM, 30-Minute Preincubation, 200 µM): 74.9% and 59.1%
- Percent of Control Activity (CYP2C9; CYP 2C9, 200 µM, Zero-Minute Preincubation, 200 µM): 71.9%
- IC50 (CYP2C9; human, microsomes, pH 7.4): > 200 µM
- activity at 0.1 µM (CYP2C9; human, microsomes, pH 7.4, Percent of Control Activity, CYP 2C9, 0.1 µM, 30-Minute Preincubation): 108%
- activity at 0.214 µM (CYP2C9; human, microsomes, pH 7.4, Percent of Control Activity, CYP 2C9, 0.214 µM, 30-Minute Preincubation): 102%
- activity at 0.214 µM (CYP2C9; human, microsomes, pH 7.4, Percent of Control Activity, CYP 2C9, 0.214 µM, Zero-Minute Preincubation): 102%
- activity at 0.979 µM (CYP2C9; human, microsomes, pH 7.4, Percent of Control Activity, CYP 2C9, 0.979 µM, 30-Minute Preincubation): 103%
- activity at 0.979 µM (CYP2C9; human, microsomes, pH 7.4, Percent of Control Activity, CYP 2C9, 0.979 µM, Zero-Minute Preincubation): 99.1%
- activity at 2.09 µM (CYP2C9; human, microsomes, pH 7.4, Percent of Control Activity, CYP 2C9, 2.09 µM, 30-Minute Preincubation): 99.5%
- activity at 2.09 µM (CYP2C9; human, microsomes, pH 7.4, Percent of Control Activity, CYP 2C9, 2.09 µM, Zero-Minute Preincubation): 110%
- activity at 4.48 µM (CYP2C9; human, microsomes, pH 7.4, Percent of Control Activity, CYP 2C9, 4.48 µM, 30-Minute Preincubation): 102%
- activity at 4.48 µM (CYP2C9; human, microsomes, pH 7.4, Percent of Control Activity, CYP 2C9, 4.48 µM, Zero-Minute Preincubation): 98.5%
- activity at 20.5 µM (CYP2C9; human, microsomes, pH 7.4, Percent of Control Activity, CYP 2C9, 20.5 µM, 30-Minute Preincubation): 96.7%
- activity at 20.5 µM (CYP2C9; human, microsomes, pH 7.4, Percent of Control Activity, CYP 2C9, 20.5 µM, Zero-Minute Preincubation): 104%
- activity at 43.8 µM (CYP2C9; human, microsomes, pH 7.4, Percent of Control Activity, CYP 2C9, 43.8 µM, 30-Minute Preincubation): 101%
- activity at 43.8 µM (CYP2C9; human, microsomes, pH 7.4, Percent of Control Activity, CYP 2C9, 43.8 µM, Zero-Minute Preincubation): 85.2%
- activity at 93.5 µM (CYP2C9; human, microsomes, pH 7.4, Percent of Control Activity, CYP 2C9, 93.5 µM, 30-Minute Preincubation): 92%
- activity at 93.5 µM (CYP2C9; human, microsomes, pH 7.4, Percent of Control Activity, CYP 2C9, 93.5 µM, Zero-Minute Preincubation): 92.6%
- activity at 200 µM (CYP2C9; human, microsomes, pH 7.4, Percent of Control Activity, CYP 2C9, 200 µM, 30-Minute Preincubation): 77.1%
- activity at 200 µM (CYP2C9; human, microsomes, pH 7.4, Percent of Control Activity, CYP 2C9, 200 µM, Zero-Minute Preincubation): 74.3%
- IC50 (BCRP): 19.5 µM
- IC50 (MATE2K): 180 µM
- IC50 (MATE2K; human, HEK293 cells stably transfected with MATE2K, pH 7.4, probe [14C]-metformin (20 µM)): > 20 µM
- KI ± SE (CYP3A4/5; Midazolam (20 µM)): 163 ± 31 µM
- KI ± SE (CYP3A4/5; Midazolam (20 µM), listed as PF00835231): 163 µM
- KI ± SE (CYP3A4/5; Testosterone ([…])): 168 ± 8 µM
- time-dependent inhibition (TDI) signal (CYP3A4/5; pooled HLM): weak signal
- EC90 [3]: 1.6 µM
- hERG margin in reference to projected unbound human Cmax (hERG channel): 600 fold
- micronuclei formation [4]: did not induce micronuclei formation
- secondary (off-target) pharmacology [5]: minimal potential for secondary (off-target) pharmacology
- Individual fraction unbound ([6]; human plasma, 5.0 uM, replicates Day 1-3): 0.474 and 0.429 and 0.385 and 0.458 and 0.463 and 0.507 and 0.437 and 0.428 and 0.477 and 0.486
- fraction unbound at 6 h, 5 uM ([6]; pH 7.4, Fraction unbound, Geomean, human plasma, 5.0 uM, n 12): 0.449
- fraction unbound at 6 h, 5 uM ([6]; pH 7.4, Individual fraction unbound, human plasma, 5.0 uM, replicates Day 1-3): 0.423
- fraction unbound at 6 h ([6]; pH 7.4, Measured plasma fu / Human plasma fu, human plasma): 0.449
- fraction unbound at 6 h ([6]; pH 7.4, Unbound fraction fu (%CV), human plasma): 0.449
- fraction unbound at 6 h, 5 uM ([6]; pH 7.4, fraction unbound Geomean, human plasma, 5.0 uM, n=12): 0.449
- fraction unbound at 6 h ([6]; pH 7.4, fu, fu,plasma, Simcyp input parameter (User), substrate): 0.449
